Test results published in patent publication US11033535B2, “Oxadiazoles and thiadiazoles as TGF-β inhibitors” (Southern Research Institute, priority 2017, dated 2021).
Like-named read-outs stand apart in the source and are kept apart here.

Experiment: Pharmacokinetic evaluation following a single oral and intravenous administration
Assay type: in vivo, CD1 mouse
Experimental: A NMP stock solution was prepared by adding 1.136 mL of NMP to 5.68 mg of compound no. 42140 with vortexing and sonification, to obtain a solution with a concentration at 5 mg/mL of 42140:01. Next, to prepare an intravenous formulation, 0.100 mL of the 5 mg/mL stock solution was placed in a new vial. 0.100 mL of NMP and 0.400 mL of PEG400 were added with vortexing and sonification, followed by addition of 0.400 mL of saline with vortexing and sonification. […] 42140:01. Alternatively, to prepare an oral formulation, 0.200 mL of the 5 mg/mL stock solution was placed in a new vial. 0.400 mL of PEG400 was added with vortexing and sonification, followed by addition of 0.400 mL of saline with vortexing and sonifiction. […] 42140:01.
(§1) Briefly, the desired serial concentrations of working solutions were achieved by diluting a stock solution of the compound with 100% acetonitrile. 3 μL of working solutions (5, 10, 20, 50, 100, 500, 1000, 5000, 10000 ng/mL) were added to 30 μL of the blank CD1 mouse plasma to achieve calibration standards of 0.5-1000 ng/mL (0.5, 1, 2, 5, 10, 50, 100, 500, 1000 ng/mL) in a total volume of 33 μL. Five quality control samples at 1 ng/mL, 2 ng/mL, 5 ng/mL, 50 ng/mL and 800 ng/mL for plasma were prepared independently of those used for the calibration curves. These QC samples were prepared on the day of analysis in the same way as calibration standards.
Next, 33 μL standards, 33 μL QC samples, and 33 μL unknown samples (30 μL plasma with 3 μL blank solution) were added to 200 μL of acetonitrile containing IS mixture for precipitating protein, respectively. Then the samples were vortexed for 30 s. After centrifugation at 4 degree Celsius, 4000 rpm for 15 min, 3 μL of supernatant was injected into the LC/MS/MS system for quantitative analysis.
HPLC analysis was performed using 100% water with 0.1% formic acid (Solution A) and 100% acetonitrile with 0.1% formic acid (Solution B) with a flow rate of 0.6 mL/min.
A NMP stock solution was prepared by adding 2.092 mL of NMP to 10.46 mg of […] with vortexing and sonification, to obtain a solution with a concentration at 5 mg/mL of […]. Next, to prepare an intravenous formulation, 0.100 mL of the 5 mg/mL stock solution was placed in a new vial. 0.100 mL of NMP and 0.400 mL of PEG400 were added with vortexing and sonification, followed by addition of 0.400 mL of saline with vortexing and sonification. […] 42320:01. Alternatively, to prepare an oral formulation, 0.200 mL of the 5 mg/mL stock solution was placed in a new vial. 0.400 mL of PEG400 was added with vortexing and sonification, followed by addition of 0.400 mL of saline with vortexing and sonifiction. […] 42320:01.
as §1, with “50 ng/mL,” for “50 ng/mL”

[1] = CD1, mouse, plasma, po, 5 mg/kg, Table 11, PO Dose: 5 mg/kg, Mouse 4, read-out: Concentration
[2] = CD1, mouse, plasma, po, 5 mg/kg, Table 11, PO Dose: 5 mg/kg, Mouse 5, read-out: Concentration
[3] = CD1, mouse, plasma, po, 5 mg/kg, Table 11, PO Dose: 5 mg/kg, Mouse 6, read-out: Concentration
[4] = CD1, mouse, plasma, po, 5 mg/kg, Table 11, PO Dose: 5 mg/kg, mean, read-out: Concentration, Mean
[5] = Table 10, IV Dose: 1 mg/kg, Mouse 1
[6] = Table 10, IV Dose: 1 mg/kg, Mouse 2
[7] = Table 10, IV Dose: 1 mg/kg, Mouse 3
[8] = Table 10, IV Dose: 1 mg/kg, mean
[9] = Table 12, PO Dose: 5 mg/kg, Mouse 4
[10] = Table 12, PO Dose: 5 mg/kg, Mouse 5
[11] = Table 12, PO Dose: 5 mg/kg, Mouse 6
[12] = Table 12, PO Dose: 5 mg/kg, mean

concentration at 2 h [1]: 165 ng/mL
concentration at 2 h [2]: 100 ng/mL
concentration at 2 h [3]: 105 ng/mL
concentration at 2 h [4]: 123 ng/mL
concentration at 4 h [1]: 88.4 ng/mL
concentration at 4 h [2]: 64.2 ng/mL
concentration at 4 h [3]: 77.7 ng/mL
concentration at 4 h [4]: 76.8 ng/mL
concentration at 8 h [1]: 49 ng/mL
concentration at 8 h [2]: 37.2 ng/mL
concentration at 8 h [3]: 37.4 ng/mL
concentration at 8 h [4]: 41.2 ng/mL
concentration at 24 h (CD1, mouse, plasma, po, 5 mg/kg, Table 11, PO Dose: 5 mg/kg, 24 h, Mouse 6, read-out: Concentration): 3.26 ng/mL
AUC(0-inf) (CD1, mouse, plasma, po, 5 mg/kg, Table 12, PO Dose: 5 mg/kg, Mouse 4, read-out: AUCInf): 1110 ng·h/mL
AUC(0-t) (CD1, mouse, plasma, po, 5 mg/kg, Table 12, PO Dose: 5 mg/kg, Mouse 4, read-out: AUClast): 856 ng·h/mL
Cmax (CD1, mouse, plasma, po, 5 mg/kg, Table 12, PO Dose: 5 mg/kg, Mouse 4, read-out: Cmax): 201 ng/mL
MRT inf (CD1, mouse, plasma, po, 5 mg/kg, Table 12, PO Dose: 5 mg/kg, Mouse 4, read-out: MRTInf—obs): 5.27 h
half-life (CD1, mouse, plasma, po, 5 mg/kg, Table 12, PO Dose: 5 mg/kg, Mouse 4, read-out: T1/2 (converted)): 214 min
AUC(0-inf) (CD1, mouse, plasma, po, 5 mg/kg, Table 12, PO Dose: 5 mg/kg, Mouse 5, read-out: AUCInf): 801 ng·h/mL
AUC(0-t) (CD1, mouse, plasma, po, 5 mg/kg, Table 12, PO Dose: 5 mg/kg, Mouse 5, read-out: AUClast): 569 ng·h/mL
Cmax (CD1, mouse, plasma, po, 5 mg/kg, Table 12, PO Dose: 5 mg/kg, Mouse 5, read-out: Cmax): 121 ng/mL
MRT inf (CD1, mouse, plasma, po, 5 mg/kg, Table 12, PO Dose: 5 mg/kg, Mouse 5, read-out: MRTInf—obs): 6.33 h
half-life (CD1, mouse, plasma, po, 5 mg/kg, Table 12, PO Dose: 5 mg/kg, Mouse 5, read-out: T1/2 (converted)): 259 min
AUC(0-inf) (CD1, mouse, plasma, po, 5 mg/kg, Table 12, PO Dose: 5 mg/kg, Mouse 6, read-out: AUCInf): 961 ng·h/mL
AUC(0-t) (CD1, mouse, plasma, po, 5 mg/kg, Table 12, PO Dose: 5 mg/kg, Mouse 6, read-out: AUClast): 940 ng·h/mL
Cmax (CD1, mouse, plasma, po, 5 mg/kg, Table 12, PO Dose: 5 mg/kg, Mouse 6, read-out: Cmax): 122 ng/mL
MRT inf (CD1, mouse, plasma, po, 5 mg/kg, Table 12, PO Dose: 5 mg/kg, Mouse 6, read-out: MRTInf—obs): 5.84 h
half-life (CD1, mouse, plasma, po, 5 mg/kg, Table 12, PO Dose: 5 mg/kg, Mouse 6, read-out: T1/2 (converted)): 265 min
AUC(0-inf) (CD1, mouse, plasma, po, 5 mg/kg, Table 12, PO Dose: 5 mg/kg, mean, read-out: AUCInf, Mean): 956 ng·h/mL
AUC(0-t) (CD1, mouse, plasma, po, 5 mg/kg, Table 12, PO Dose: 5 mg/kg, mean, read-out: AUClast, Mean): 788 ng·h/mL
Cmax (CD1, mouse, plasma, po, 5 mg/kg, Table 12, PO Dose: 5 mg/kg, mean, read-out: Cmax, Mean): 148 ng/mL
MRT inf (CD1, mouse, plasma, po, 5 mg/kg, Table 12, PO Dose: 5 mg/kg, mean, read-out: MRTInf—obs, Mean): 5.81 h
half-life (CD1, mouse, plasma, po, 5 mg/kg, Table 12, PO Dose: 5 mg/kg, mean, read-out: T1/2, Mean (converted)): 246 min
Tmax (CD1, plasma, Table 12, PO Dose: 5 mg/kg, Mouse 4): 30 min
Concentration (Table 9, IV Dose: 1 mg/kg, 24 h, Mouse 1): BLOQ
Concentration (Table 9, IV Dose: 1 mg/kg, 24 h, Mouse 2): BLOQ
Concentration (Table 9, IV Dose: 1 mg/kg, 24 h, Mouse 3): BLOQ
AUClast/D [5]: 169 h·ng/mL per mg/kg
AUC—% Extrap—obs [5]: 7.32%
Cl_obs [5]: 91.3 mL/min/kg
AUClast/D [6]: 153 h·ng/mL per mg/kg
AUC—% Extrap—obs [6]: 7.31%
Cl_obs [6]: 101 mL/min/kg
AUClast/D [7]: 172 h·ng/mL per mg/kg
AUC—% Extrap—obs [7]: 10.6%
Cl_obs [7]: 86.3 mL/min/kg
AUClast/D, Mean [8]: 165 h·ng/mL per mg/kg
AUC—% Extrap—obs, Mean [8]: 8.4%
C0, Mean [8]: 100 ng/mL
Cl_obs, Mean [8]: 93 mL/min/kg
Concentration (Table 11, PO Dose: 5 mg/kg, 24 h, Mouse 4): BLOQ
Concentration (Table 11, PO Dose: 5 mg/kg, 24 h, Mouse 5): BLOQ
AUClast/D [9]: 171 h·ng/mL per mg/kg
AUC—% Extrap—obs [9]: 22.7%
F [9]: 104%
AUClast/D [10]: 114 h·ng/mL per mg/kg
AUC—% Extrap—obs [10]: 28.9%
F [10]: 69.0%
AUClast/D [11]: 188 h·ng/mL per mg/kg
AUC—% Extrap—obs [11]: 2.16%
F [11]: 107%
AUClast/D, Mean [12]: 158 h·ng/mL per mg/kg
AUC—% Extrap—obs, Mean [12]: 17.9%
F, Mean [12]: 93%
SMILES: CC(=O)N[C@@H](Cc1ccc(CN(C)C)cc1)c1nnc(-c2cccc(OC(F)(F)F)c2)s1 [Compound 42320, N-(2-(4-((dimethylamino)methyl)phenyl)-1-(5-(3-(trifluoromethoxy)phenyl)-1,3,4-thiadiazol-2-yl)ethyl)acetamide]
